What was measured:
bedstraw = test: Test B pre/postemergence bedstraw; type: in vivo, Galium aparine
Procedure, shortened: (§1)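 Response is a visual 0-to-10 score relative to untreated plants, where 0 means no effect and 10 means complete control, taken twelve to sixteen days after application. Treatments went onto soil at planting and onto foliage of 1- to 4-leaf plants, using a surfactant-containing non-phytotoxic solvent.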

blackgrass = test: Test B pre/postemergence blackgrass; type: in vivo, Alopecurus myosuroides
Procedure, shortened: as §1

surinam grass = test: Test B pre/postemergence surinam grass; type: in vivo, Brachiaria decumbens
Procedure, shortened: as §1

corn = test: Test B pre/postemergence corn; type: in vivo, Zea mays
Procedure, shortened: as §1

giant foxtail = test: Test B pre/postemergence giant foxtail; type: in vivo, Setaria faberii
Procedure, shortened: as §1

morningglory = test: Test B pre/postemergence morningglory; type: in vivo, Ipomoea hederacea
Procedure, shortened: as §1

pigweed = test: Test B pre/postemergence pigweed; type: in vivo, Amaranthus retroflexus
Procedure, shortened: as §1

rape = test: Test B pre/postemergence rape; type: in vivo, Brassica napus
Procedure, shortened: as §1

soybean = test: Test B pre/postemergence soybean; type: in vivo, Glycine max
Procedure, shortened: as §1

sugar beet = test: Test B pre/postemergence sugar beet; type: in vivo, Beta vulgaris
Procedure, shortened: as §1

velvetleaf = test: Test B pre/postemergence velvetleaf; type: in vivo, Abutilon theophrasti
Procedure, shortened: as §1

purple nutsedge = test: Test B pre/postemergence purple nutsedge; type: in vivo, Cyperus rotundus
Procedure, shortened: as §1

rice = test: Test B flood test rice; type: in vivo, Oryza sativa
Procedure, shortened: (§2)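 Each value is a visual injury score relative to controls, with 10 meaning complete control and 0 no effect. Evaluation took place twelve to sixteen days after the 2-leaf-stage plants were treated and kept in the greenhouse.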

smallflower flatsedge = test: Test B flood test smallflower flatsedge; type: in vivo, Cyperus difformis
Procedure, shortened: as §2

duck salad = test: Test B flood test duck salad; type: in vivo, Heteranthera limosa
Procedure, shortened: as §2

bamyardgrass = test: Test B flood test barnyardgrass; type: in vivo, Echinochloa crus-galli
Procedure, shortened: as §2

[1] = Postemergence, Rate 62 g/ha, scale 0 to 10, 0 is no effect, 10 is complete control
[2] = Postemergence, Rate 250 g/ha, scale 0 to 10, 0 no effect, 10 complete control
[3] = Preemergence, Rate 62 g/ha, scale 0 to 10 (0 no effect, 10 complete control)
[4] = Preemergence, Rate 125 g/ha, scale 0 to 10 (0 no effect, 10 complete control)
[5] = Preemergence, Rate 250 g/ha, scale of 0 to 10 where 0 is no effect and 10 is complete control
[6] = Preemergence, Rate 500 g/ha, scale 0 (no effect) to 10 (complete control)
[7] = Rate 125 g/ha, Postemergence, scale 0 to 10, 0 no effect, 10 complete control
[8] = Rate 500 g/ha, Postemergence, scale 0 to 10, 0 no effect, 10 complete control
[9] = Rate 1000 g/ha, Preemergence, scale 0 to 10 (0 no effect, 10 complete control)
[10] = Postemergence, Rate 125 g/ha, scale of 0 to 10 where 0 is no effect and 10 is complete control
[11] = Postemergence, Rate 1000 g/ha, scale 0 to 10 (0 no effect, 10 complete control)
[12] = Rate 62 g/ha, Postemergence, scale of 0 to 10 where 0 is no effect and 10 is complete control
[13] = Rate 250 g/ha, Postemergence, scale 0 to 10, 0 is no effect, 10 is complete control
[14] = Preemergence, Rate 125 g/ha, 0 is no effect, 10 is complete control
[15] = Postemergence (flood test species), Rate 125 g/ha, scale of 0 to 10 where 0 is no effect and 10 is complete control
[16] = Rate 62 g/ha, Postemergence section, flood test species, scale of 0 to 10 where 0 is no effect and 10 is complete control
[17] = Rate 250 g/ha, Postemergence (flood test), scale 0 to 10, 0 is no effect, 10 is complete control
[18] = Rate 500 g/ha, listed under Postemergence (flood test species), scale 0 to 10, 0 no effect, 10 complete control
[19] = flood test, listed under Postemergence, Rate 250 g/ha, scale 0 to 10, 0 no effect, 10 complete control

## CC(C)N(C(=O)n1oc(=O)n(C2CCCCC2C(F)(F)F)c1=O)c1ccc(F)cc1 (stereo not drawn) [Compound 99]
bedstraw; [1]
  Bedstraw plant response rating: 3
bedstraw; [2]
  Bedstraw plant response rating: 8
bedstraw; [3]
  Bedstraw plant response rating: 0
bedstraw; [4]
  Plant response rating, Bedstraw: 0
bedstraw; [5]
  Plant response rating, Bedstraw: 0
bedstraw; [6]
  Bedstraw plant response rating: 0
bedstraw; [7]
  Bedstraw plant response rating: 5
bedstraw; [8]
  Bedstraw plant response rating: 8
bedstraw; [9]
  Plant response rating, Bedstraw: 0
blackgrass; [10]
  Blackgrass plant response rating: 3
blackgrass; [2]
  Blackgrass plant response rating: 6
blackgrass; [11]
  Blackgrass plant response rating: 5
blackgrass; [3]
  Blackgrass plant response rating: 0
blackgrass; [4]
  Plant response rating, Blackgrass: 3
blackgrass; [5]
  Plant response rating, Blackgrass: 4
blackgrass; [6]
  Blackgrass plant response rating: 4
blackgrass; [12]
  Blackgrass plant response rating: 3
blackgrass; [8]
  Blackgrass plant response rating: 6
blackgrass; [9]
  Plant response rating, Blackgrass: 7
Surinam grass; [1]
  B. signalgrass plant response rating: 0
Surinam grass; [2]
  B. signalgrass plant response rating: 0
Surinam grass; [11]
  B. signalgrass plant response rating: 4
Surinam grass; [3]
  B. signalgrass plant response rating: 0
Surinam grass; [4]
  Plant response rating, B. signalgrass: 0
Surinam grass; [5]
  Plant response rating, B. signalgrass: 2
Surinam grass; [6]
  B. signalgrass plant response rating: 3
Surinam grass; [7]
  B. signalgrass plant response rating: 0
Surinam grass; Rate 500 g/ha, Postemergence, scale of 0 to 10 where 0 is no effect and 10 is complete control
  B. signalgrass plant response rating: 2
Surinam grass; [9]
  Plant response rating, B. signalgrass: 6
corn; [10]
  Corn plant response rating: 0
corn; [2]
  Corn plant response rating: 0
corn; [11]
  Corn plant response rating: 0
corn; [3]
  Corn plant response rating: 0
corn; [4]
  Plant response rating, Corn: 0
corn; [5]
  Plant response rating, Corn: 0
corn; [6]
  Corn plant response rating: 0
corn; [12]
  Corn plant response rating: 0
corn; [8]
  Corn plant response rating: 0
corn; [9]
  Plant response rating, Corn: 2
Giant foxtail; [10]
  Giant foxtail plant response rating: 0
Giant foxtail; [2]
  Giant foxtail plant response rating: 2
Giant foxtail; [11]
  Giant foxtail plant response rating: 2
Giant foxtail; [4]
  Plant response rating, Giant foxtail: 10
Giant foxtail; [5]
  Plant response rating, Giant foxtail: 10
Giant foxtail; [6]
  Giant foxtail plant response rating: 10
Giant foxtail; [12]
  Giant foxtail plant response rating: 0
Giant foxtail; [8]
  Giant foxtail plant response rating: 7
Giant foxtail; [9]
  Plant response rating, Giant foxtail: 10
morningglory; [10]
  Morningglory plant response rating: 3
morningglory; [2]
  Morningglory plant response rating: 3
morningglory; [11]
  Morningglory plant response rating: 9
morningglory; [3]
  Morningglory plant response rating: 0
morningglory; [4]
  Plant response rating, Morningglory: 0
morningglory; [5]
  Plant response rating, Morningglory: 0
morningglory; [6]
  Morningglory plant response rating: 0
morningglory; [12]
  Morningglory plant response rating: 1
morningglory; [8]
  Morningglory plant response rating: 5
morningglory; [9]
  Plant response rating, Morningglory: 3
pigweed; [10]
  Redroot pigweed plant response rating: 4
pigweed; [11]
  Redroot pigweed plant response rating: 7
pigweed; [3]
  Redroot pigweed plant response rating: 0
pigweed; [4]
  Plant response rating, Redroot pigweed: 0
pigweed; [5]
  Plant response rating, Redroot pigweed: 4
pigweed; [6]
  Redroot pigweed plant response rating: 10
pigweed; [12]
  Redroot pigweed plant response rating: 3
pigweed; [13]
  Plant response rating, Redroot pigweed: 5
pigweed; [8]
  Redroot pigweed plant response rating: 7
pigweed; [9]
  Plant response rating, Redroot pigweed: 10
rape; [10]
  Rape plant response rating: 2
rape; [2]
  Rape plant response rating: 4
rape; [11]
  Rape plant response rating: 7
rape; [3]
  Rape plant response rating: 0
rape; [4]
  Plant response rating, Rape: 0
rape; [5]
  Plant response rating, Rape: 0
rape; [6]
  Rape plant response rating: 3
rape; [12]
  Rape plant response rating: 2
rape; [8]
  Rape plant response rating: 6
rape; [9]
  Plant response rating, Rape: 6
soybean; [10]
  Soybean plant response rating: 2
soybean; [11]
  Soybean plant response rating: 3
soybean; [3]
  Soybean plant response rating: 0
soybean; [4]
  Plant response rating, Soybean: 0
soybean; [5]
  Plant response rating, Soybean: 0
soybean; [6]
  Soybean plant response rating: 0
soybean; [12]
  Soybean plant response rating: 2
soybean; [13]
  Plant response rating, Soybean: 3
soybean; [8]
  Soybean plant response rating: 4
soybean; [9]
  Plant response rating, Soybean: 2
Sugar beet; [10]
  Sugarbeets plant response rating: 4
Sugar beet; [11]
  Sugarbeets plant response rating: 5
Sugar beet; [3]
  Sugarbeets plant response rating: 0
Sugar beet; [14]
  Sugarbeets plant response rating (0 to 10 scale): 2
Sugar beet; [5]
  Plant response rating, Sugarbeets: 2
Sugar beet; [6]
  Sugarbeets plant response rating: 4
Sugar beet; [12]
  Sugarbeets plant response rating: 2
Sugar beet; [13]
  Plant response rating, Sugarbeets: 4
Sugar beet; [8]
  Sugarbeets plant response rating: 5
Sugar beet; [9]
  Plant response rating, Sugarbeets: 6
velvetleaf; [10]
  Velvetleaf plant response rating: 3
velvetleaf; [11]
  Velvetleaf plant response rating: 7
velvetleaf; [3]
  Velvetleaf plant response rating: 0
velvetleaf; [14]
  Velvetleaf plant response rating (0 to 10 scale): 0
velvetleaf; [5]
  Plant response rating, Velvetleaf: 0
velvetleaf; [6]
  Velvetleaf plant response rating: 3
velvetleaf; [12]
  Velvetleaf plant response rating: 0
velvetleaf; [13]
  Plant response rating, Velvetleaf: 3
velvetleaf; [8]
  Velvetleaf plant response rating: 5
velvetleaf; [9]
  Plant response rating, Velvetleaf: 0
Purple nutsedge; [10]
  Nutsedge plant response rating: 0
Purple nutsedge; [2]
  Nutsedge plant response rating: 0
Purple nutsedge; [11]
  Nutsedge plant response rating: 0
Purple nutsedge; [3]
  Nutsedge plant response rating: 0
Purple nutsedge; [4]
  Plant response rating, Nutsedge: 0
Purple nutsedge; [5]
  Plant response rating, Nutsedge: 0
Purple nutsedge; [6]
  Nutsedge plant response rating: 6
Purple nutsedge; [12]
  Nutsedge plant response rating: 0
Purple nutsedge; [8]
  Nutsedge plant response rating: 0
Purple nutsedge; [9]
  Plant response rating, Nutsedge: 10
rice; [15]
  Rice plant response rating: 0
rice; [11]
  Rice plant response rating: 0
rice; [16]
  Rice plant response rating: 0
rice; [17]
  Plant response rating, Rice: 0
rice; [18]
  Rice plant response rating: 0
Smallflower flatsedge; [15]
  S. Flatsedge plant response rating: 0
Smallflower flatsedge; [11]
  S. Flatsedge plant response rating: 3
Smallflower flatsedge; [16]
  S. Flatsedge plant response rating: 0
Smallflower flatsedge; [17]
  Plant response rating, S. Flatsedge: 0
Smallflower flatsedge; [18]
  S. Flatsedge plant response rating: 2
Duck salad; [15]
  Ducksalad plant response rating: 0
Duck salad; [11]
  Ducksalad plant response rating: 3
Duck salad; [16]
  Ducksalad plant response rating: 0
Duck salad; [18]
  Ducksalad plant response rating: 2
Duck salad; [19]
  Ducksalad plant response rating: 2
bamyardgrass; [1]
  Barnyardgrass plant response rating: 0
bamyardgrass; [11]
  Barnyardgrass plant response rating: 8
bamyardgrass; Rate 125 g/ha, Postemergence section (flood test species), scale 0 to 10, 0 no effect, 10 complete control
  Barnyardgrass plant response rating: 0
bamyardgrass; [18]
  Barnyardgrass plant response rating: 5
bamyardgrass; [19]
  Barnyardgrass plant response rating: 0

From US6737383B1, “Herbicidal oxadiazolidines” (priority 1999, dated 2004)
